Source: paper PMC5101480 (Scientific Reports, 2016)

B1: K398C Rpn13_260-407: Rpn13_260-407 K398C mutant carrying site-directed paramagnetic spin-label (MTSL) (protein, UniProt Q16186 260-407, looked up, variant K398C)
chain: QPIQLSDLQSILATMNVPAGPAGGQQVDLASVLTPEIMAPILANADVQERLLPYLPSGESLPQTADEIQNTLTSPQFQQALGMFSAALASGQLGPLMCQFGLPAEAVEAANKGDVEAFAKAMQNNAKPEQKEGDTKDKCDEEEDMSLD
modifications: MTSL spin label

Legend:
[1] = test system: OP91 in HeLa TRex Flp-In cells; test: Steady state OP91 (model MLP) levels on co-expression, quantitative western blotting; format: cell-based; conditions: co-expression of SGTA-V5 compared with K160E/R164E mutant or PEX19 control; normalised to tubulin; n = 3; 24 h transfection, 24 h induction
Source text: However, the ability of exogenous SGTA to enhance steady state MLP levels is offset when key residues of the carboxylate clamp, located in its TPR domain, are mutated. […] These finding are consistent with the proposal that a TPR based interaction of exogenous SGTA contributes to its effects on steady state MLP levels. […]
Figure 5 The SGTA-Rpn13 interaction alters steady state levels of a model MLP. […] Cells were then harvested directly into sample buffer and analysed by western blotting using primary antibodies to the N-terminus of opsin (OP91), the V5 tag (PEX19 and SGTA) or tubulin (loading control) in combination with secondary antibodies labelled with infrared dyes (LiCor) in order to produce quantitative signals as previously described. (B) OP91 signals were quantified (see Materials and Methods) and normalised to the tubulin loading control, values show standard errors for n = 3. […] (F) OP91 signals were quantified as described for (B), values show standard errors for n = 3. […]

[2] = test system: OP91 in HeLa TRex Flp-In cells; conditions: overexpression of exogenous SGTA, model MLPs including OP91; cited from earlier work
Source text: However, the ability of exogenous SGTA to enhance steady state MLP levels is offset when key residues of the carboxylate clamp, located in its TPR domain, are mutated. We recapitulated this experiment ...

[3] = target: T1, TPR domain of SGTA (SGTA_TPR) (Homo sapiens, UniProt O43765); test: Paramagnetic relaxation enhancement (PRE) of 15N-labelled SGTA_TPR by MTSL labelled K398C Rpn13_260-407; format: binding; conditions: MTSL at K398C; 15N-labelled SGTA_TPR to spin labelled Rpn13 1:1.2; pH 6.0; residues Met-102, Lys-103, Glu-105, Lys-137, Ser-170, Asn-173, Ser-197, Lys-200, Ile-201, Glu-203, Ser-211
T1 construct: thioredoxin A (TxA) fusion (N, cleaved yes); hexahistidine tag (N, cleaved yes); made in house; host or cells: E. coli BL21(DE3) Rosetta
T1 sequence (O43765 84-211): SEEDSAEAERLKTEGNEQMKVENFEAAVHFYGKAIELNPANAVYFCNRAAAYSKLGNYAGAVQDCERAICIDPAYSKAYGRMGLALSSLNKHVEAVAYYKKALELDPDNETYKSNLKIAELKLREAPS
Method: Using CSP experiments combined with available mutagenesis data, an initial model of a 1:1 complex was generated by a HADDOCK based semi-rigid, data-driven approach using the DMSLD pentapeptide coordinates from the solution NMR structure of Rpn13 (PDB accession code: 2KR0) and the crystal structure of SGTA_TPR (PDB accession code: 2VYI). The three lowest energy HADDOCK clusters of the SGTA_TPR/DMSLD complex were analysed (Figure S7 and Table S1). […] Proximity dependent line broadening of ^15N-labelled SGTA_TPR backbone amide signals was monitored for intermolecular paramagnetic relaxation enhancement (PRE) effects upon addition of MTSL labelled K398C Rpn13_260-407 (Fig. 4B). Significant line broadening effects were observed upon binding in backbone amide peaks of SGTA_TPR residues Met-102, Lys-103, Glu-105, Lys-137, Ser-170, Asn-173, Ser-197, Lys-200, Ile-201, Glu-203, Ser-211, all present on the lower edge of its concave surface lining the entry to the central groove (Fig. 4C,D).
The Rpn13 C-terminal residue Lys 398 was mutated to a cysteine for paramagnetic spin labelling studies. Mutant Rpn13_260-407 was treated with excess TCEP for 2 hours to ensure cysteines were reduced, followed by dialysis against 10 mM potassium phosphate pH 6.0, 100 mM NaCl buffer to remove excess TCEP. […]

Molecule	change in steady state OP91 level [1]	steady state MLP levels, earlier studies [2]	distance of paramagnetic probe from SGTA_TPR residues with significant line broadening [3] [Å]
SGTA-V5: exogenous V5-tagged SGTA overexpressed from plasmid	three-fold increase	typically increases the steady-state levels of model MLPs	
B1			≤ 20
